From patent US8049012B2, “3-aza-spiro[5.5]undecane derivatives and their use as monoamine neurotransmitter re-uptake inhibitors” (Neurosearch A/S, priority 2005, dated 2011)

How the values were obtained:
[1] = biological target: T1, reuptake of dopamine (DA) in synaptosomes (Rattus norvegicus, UniProt P23977); assay: Inhibition of 3H-DA reuptake in synaptosomes; type: biochemical; conditions: as described in WO 97/16451, read-out: DA-uptake IC50
T1 construct: in synaptosomes as described in WO 97/16451; from tissue
T1 sequence (P23977 whole entry): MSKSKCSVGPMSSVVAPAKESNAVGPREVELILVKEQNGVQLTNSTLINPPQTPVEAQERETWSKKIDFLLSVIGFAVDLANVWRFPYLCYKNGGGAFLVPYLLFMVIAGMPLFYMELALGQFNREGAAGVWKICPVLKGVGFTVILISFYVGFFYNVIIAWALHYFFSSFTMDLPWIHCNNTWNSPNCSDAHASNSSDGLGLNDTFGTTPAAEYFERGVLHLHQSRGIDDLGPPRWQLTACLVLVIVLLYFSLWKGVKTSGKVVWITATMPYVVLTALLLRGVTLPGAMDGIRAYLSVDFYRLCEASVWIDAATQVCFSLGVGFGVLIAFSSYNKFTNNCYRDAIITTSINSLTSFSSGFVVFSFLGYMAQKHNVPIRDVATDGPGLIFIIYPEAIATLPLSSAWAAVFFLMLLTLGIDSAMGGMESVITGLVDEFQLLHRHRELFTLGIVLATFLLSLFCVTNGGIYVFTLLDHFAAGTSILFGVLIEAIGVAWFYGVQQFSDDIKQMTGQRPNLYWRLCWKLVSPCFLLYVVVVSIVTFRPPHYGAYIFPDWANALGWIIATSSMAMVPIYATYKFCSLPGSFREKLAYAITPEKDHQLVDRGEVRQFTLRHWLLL
Procedure: (§1) A number of compounds were tested for their ability to inhibit the reuptake of the monoamine neurotransmitters dopamine (DA) noradrenaline (NA) and serotonine (5-HT) in synaptosomes as described in WO 97/16451.
(§2) The test values are given as IC50 (the concentration (μM) of the test substance which inhibits the specific binding of ^3H-DA, ^3H-NA, or ^3H-5-HT by 50%).

[2] = biological target: T2, reuptake of serotonine (5-HT) in synaptosomes (Rattus norvegicus, UniProt P31652); assay: Inhibition of 3H-5-HT reuptake in synaptosomes; type: biochemical; conditions: as described in WO 97/16451, read-out: 5-HT-uptake IC50
T2 construct: in synaptosomes as described in WO 97/16451; from tissue
T2 sequence (P31652 whole entry): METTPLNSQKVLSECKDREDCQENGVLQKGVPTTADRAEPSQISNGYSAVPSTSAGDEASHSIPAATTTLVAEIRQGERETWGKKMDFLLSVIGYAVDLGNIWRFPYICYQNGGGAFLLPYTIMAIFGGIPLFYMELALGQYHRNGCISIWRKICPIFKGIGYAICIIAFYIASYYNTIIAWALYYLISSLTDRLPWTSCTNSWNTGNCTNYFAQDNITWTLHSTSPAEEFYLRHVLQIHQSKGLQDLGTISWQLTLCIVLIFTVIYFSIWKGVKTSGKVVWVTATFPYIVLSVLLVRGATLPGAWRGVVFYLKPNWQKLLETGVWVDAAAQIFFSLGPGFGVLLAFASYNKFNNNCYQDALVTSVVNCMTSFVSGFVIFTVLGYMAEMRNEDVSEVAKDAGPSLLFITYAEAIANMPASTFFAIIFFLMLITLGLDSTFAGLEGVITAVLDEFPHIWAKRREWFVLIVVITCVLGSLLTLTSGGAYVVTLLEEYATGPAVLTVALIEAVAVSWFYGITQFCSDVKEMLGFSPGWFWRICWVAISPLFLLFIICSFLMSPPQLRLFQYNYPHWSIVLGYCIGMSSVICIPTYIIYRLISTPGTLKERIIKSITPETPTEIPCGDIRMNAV
Procedure: as §1, §2

| IC50 [1] [nM] | melting point [°C] | IC50 [2] [nM] | Structure (SMILES) |
| --- | --- | --- | --- |
| 490 | 128 to 132 | 2.3 | Clc1ccc(NC2CCC3(CCNCC3)CC2)cc1Cl [2nd last compound of method A, (3-Aza-spiro[5.5]undec-9-yl)-(3,4-dichloro-phenyl)-amine] |
| 1200 | 126 to 128 | 2 | O=c1ccc2ccc(OC3CCC4(CCNCC4)CC3)cc2o1 [3rd compound of method A, 7-(3-Aza-spiro[5.5]undec-9-yloxy)-chromen-2-one] |
